According to US20240101531A1, “PYRIDINAMINE DERIVATIVES AND THEIR USE AS POTASSIUM CHANNEL MODULATORS” (Xenon Pharmaceuticals Inc., priority 2022, published 2024):
Where a name gives a salt, the structure may show the parent alone.

Each molecule was assayed against human KV7.2/KV7.3 (Homo sapiens (Human), UniProt O43525+O43526) (assay: Potassium flux assay (IPG-2 AM dye)). Conditions: TREX HEK 293 or HEK 293 cells expressing human KV7.2/KV7.3; arithmetic mean values.
Assay type: cell-based
Procedure, shortened: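 HEK 293 or TREX HEK 293 cells stably expressing human KV7.2/KV7.3 (tetracycline-induced where needed), loaded with IPG-2 AM, then compound for 20 min at room temperature. Flux triggered by K challenge buffer (10 mM KCl, pH 7.4), read at 530/558 nm; EC50 from 16-point 2-fold series from 30 μM, normalised to DMSO and reference modulator.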

Q: Which EC50 does the source give for `Cc1ncc(Nc2nccc3cc(OCc4ccncc4)ccc23)cn1` [Example 199, N-(2-methylpyrimidin-5-yl)-6-(pyridin-4-ylmethoxy)isoquinolin-1-amine] here?
A: 1000 to 10000 nM

Q: `Fc1c(NCC2CC2)ccc2c(Nc3ccc(Cl)nc3)nccc12` [Example 232, N^1-(6-chloropyridin-3-yl)-N^6-(cyclopropylmethyl)-5-fluoroisoquinoline-1,6-diamine] was tested. Which EC50 did it give?
A: 1000 to 10000 nM

Q: For `FC(F)(F)CN1CC(COc2ccc3c(Nc4ccc(Cl)nc4)nccc3c2)C1` [Example 310, N-(6-chloropyridin-3-yl)-6-((1-(2,2,2-trifluoroethyl)azetidin-3-yl)methoxy)isoquinolin-1-amine], which EC50 is on record?
A: 1000 to 10000 nM

Q: `OCc1ncc(Nc2nccc3cc(OCC4(F)CC4)ccc23)cn1` [Example 129, (5-((6-((1-fluorocyclopropyl)methoxy)isoquinolin-1-yl)amino)pyrimidin-2-yl)methanol] was tested. Which EC50 did it give?
A: 1000 to 10000 nM

Q: How did the EC50 turn out when `N#CC1(COc2ccc3c(Nc4ccc(Cl)nc4)nccc3c2)CC1` [Example 80, 1-(((1-((6-chloropyridin-3-yl)amino)isoquinolin-6-yl)oxy)methyl)cyclopropane-1-carbonitrile] was run?
A: < 1000 nM

Q: For `Clc1ccc(Nc2nccc3cc(OCC4CC5(COC5)C4)ccc23)cn1` [Example 81, 6-((2-oxaspiro[3.3]heptan-6-yl)methoxy)-N-(6-chloropyridin-3-yl)isoquinolin-1-amine], which EC50 is on record?
A: 1000 to 10000 nM

Q: With `COc1cc(Nc2nccc3cc(OCc4cnn(C)c4)ccc23)cnc1C` [Example 55, N-(5-methoxy-6-methylpyridin-3-yl)-6-((1-methyl-1H-pyrazol-4-yl)methoxy)isoquinolin-1-amine formate] as the molecule, how does the EC50 read?
A: < 1000 nM

Q: `O[C@H]1CC[C@@H](Oc2ccc3c(Nc4ccc(Cl)nc4)nccc3c2)CC1` [Example 100, Cis-4-((1-((6-chloropyridin-3-yl)amino)isoquinolin-6-yl)oxy)cyclohexan-1-ol] was tested. Which EC50 did it give?
A: < 1000 nM

Q: With `N#CC1(COc2ccc3c(Nc4ccc(Cl)nc4)nccc3c2)CCOCC1` [Example 50, 4-(((1-((6-chloropyridin-3-yl)amino)isoquinolin-6-yl)oxy)methyl)tetrahydro-2H-pyran-4-carbonitrile] as the molecule, how does the EC50 read?
A: < 1000 nM

Q: For `Clc1ccc(Nc2nccc3occc23)cn1` [Example 30, N-(6-chloropyridin-3-yl)furo[3,2-c]pyridin-4-amine formate], which EC50 is on record?
A: 1000 to 10000 nM

Q: For `OC12CC3CC(C1)CC(Oc1ccc4c(Nc5ccc(Cl)nc5)nccc4c1)(C3)C2` [Example 331, 3-((1-((6-chloropyridin-3-yl)amino)isoquinolin-6-yl)oxy)adamantan-1-ol], which EC50 is on record?
A: < 1000 nM

Q: For `CC1(C)CC(COc2ccc3c(Nc4ccc(Cl)nc4)nccc3c2)O1` (centres unmarked) [Example 209, N-(6-chloropyridin-3-yl)-6-((4,4-dimethyloxetan-2-yl)methoxy)isoquinolin-1-amine], which EC50 is on record?
A: 1000 to 10000 nM

Q: With `FC1(COc2ccc3c(Nc4cnc(Cl)nc4)nccc3c2)COC1` [Example 56, N-(2-chloropyrimidin-5-yl)-6-((3-fluorooxetan-3-yl)methoxy)isoquinolin-1-amine] as the molecule, how does the EC50 read?
A: < 1000 nM

Q: Which EC50 does the source give for `CC(=O)N[C@H]1CC[C@@H](Oc2ccc3c(Nc4ccc(Cl)nc4)nccc3c2)CC1` [Example 316, N-(cis-4-((1-((6-chloropyridin-3-yl)amino)isoquinolin-6-yl)oxy)cyclohexyl)acetamide] here?
A: < 1000 nM

Q: With `Cn1cc(Oc2ccc3c(Nc4ccc(Cl)nc4)nccc3c2)cn1` [Example 311, N-(6-chloropyridin-3-yl)-6-((1-methyl-1H-pyrazol-4-yl)oxy)isoquinolin-1-amine] as the molecule, how does the EC50 read?
A: 1000 to 10000 nM

Q: How did the EC50 turn out when `Cc1ncc(Nc2nccc3cc(OCc4ccn(C)n4)ccc23)cn1` [Example 206, 6-((1-methyl-1H-pyrazol-3-yl)methoxy)-N-(2-methylpyrimidin-5-yl)isoquinolin-1-amine] was run?
A: 1000 to 10000 nM

Q: For `O[C@@H]1CCCC[C@@H]1Oc1ccc2c(Nc3ccc(Cl)nc3)nccc2c1` (relative stereo) [Example 142, cis-2-((1-((6-chloropyridin-3-yl)amino)isoquinolin-6-yl)oxy)cyclohexan-1-ol], which EC50 is on record?
A: < 1000 nM

Q: `Clc1ccc2c(Nc3ccc(Cl)nc3)nccc2c1` [Example 21, 6-chloro-N-(6-chloropyridin-3-yl)isoquinolin-1-amine] was tested. Which EC50 did it give?
A: 10000 to 30000 nM

Q: With `CCOC(=O)C1(COc2ccc3c(Nc4ccc(Cl)nc4)nccc3c2)CC1` [Example 110, ethyl 1-(((1-((6-chloropyridin-3-yl)amino)isoquinolin-6-yl)oxy)methyl)cyclopropane-1-carboxylate] as the molecule, how does the EC50 read?
A: 1000 to 10000 nM

Q: Which EC50 does the source give for `COCCOc1ccc2c(Nc3cnc(C)nc3)nccc2c1` [Example 37, 6-(2-methoxyethoxy)-N-(2-methylpyrimidin-5-yl)isoquinolin-1-amine] here?
A: 10000 to 30000 nM

Q: With `Clc1ccc(Nc2nccc3cc(OCc4c[nH]nc4Cl)ccc23)cn1` [Example 337, 6-((3-chloro-1H-pyrazol-4-yl)methoxy)-N-(6-chloropyridin-3-yl)isoquinolin-1-amine] as the molecule, how does the EC50 read?
A: 1000 to 10000 nM

Q: How did the EC50 turn out when `Clc1ncc(Nc2nccc3cc(OC[C@H]4COCCO4)ccc23)cn1` [Example 382, (R)-6-((1,4-dioxan-2-yl)methoxy)-N-(2-chloropyrimidin-5-yl)isoquinolin-1-amine] was run?
A: < 1000 nM

Q: With `Clc1ccc(Nc2nccc3cc(OCc4cccnc4)ccc23)cn1` [Example 195, N-(6-chloropyridin-3-yl)-6-(pyridin-3-ylmethoxy)isoquinolin-1-amine] as the molecule, how does the EC50 read?
A: < 1000 nM

Q: For `Clc1ccc(Nc2nccc3cc(OCc4ccccn4)ccc23)cn1` [Example 5, N-(6-chloropyridin-3-yl)-6-(pyridin-2-ylmethoxy)isoquinolin-1-amine], which EC50 is on record?
A: 1000 to 10000 nM

Q: How did the EC50 turn out when `Cc1ncc(Nc2nccc3cc(O[C@@H]4CCC[C@H](O)C4)ccc23)cn1` [Example 340, (1 S,3R)-3-((1-((2-methylpyrimidin-5-yl)amino)isoquinolin-6-yl)oxy)cyclohexan-1-ol] was run?
A: < 1000 nM

Q: How did the EC50 turn out when `Cn1nc(COc2ccc3c(Nc4ccc(Cl)nc4)nccc3c2)cc1C#N` [Example 62, 3-(((1-((6-chloropyridin-3-yl)amino)isoquinolin-6-yl)oxy)methyl)-1-methyl-1H-pyrazole-5-carbonitrile] was run?
A: 1000 to 10000 nM

Q: `N#CC1(COc2ccc3c(Nc4ccc(Cl)nc4)nccc3c2)CC2(COC2)C1` [Example 333, 6-(((1-((6-chloropyridin-3-yl)amino)isoquinolin-6-yl)oxy)methyl)-2-oxaspiro[3.3]heptane-6-carbonitrile] was tested. Which EC50 did it give?
A: < 1000 nM

Q: `Cc1ncc(Nc2nccc3cc(OCC4(C#N)CC(F)(F)C4)ccc23)cn1` [Example 235, 3,3-difluoro-1-(((1-((2-methylpyrimidin-5-yl)amino)isoquinolin-6-yl)oxy)methyl)cyclobutane-1-carbonitrile formate] was tested. Which EC50 did it give?
A: < 1000 nM

Q: How did the EC50 turn out when `Clc1ccc(Nc2nccc3cc(OCCC4COC4)ccc23)cn1` [Example 89, N-(6-chloropyridin-3-yl)-6-(2-(oxetan-3-yl)ethoxy)isoquinolin-1-amine] was run?
A: < 1000 nM

Q: `Cc1ncc(Nc2nccc3cc(OCc4cnn(C)c4)cnc23)cn1` [Example 258, 3-((1-methyl-1H-pyrazol-4-yl)methoxy)-N-(2-methylpyrimidin-5-yl)-1,7-naphthyridin-8-amine] was tested. Which EC50 did it give?
A: 1000 to 10000 nM

Q: For `Cc1ncsc1C(=O)N[C@H]1CC[C@@H](Oc2ccc3c(Nc4ccc(Cl)nc4)nccc3c2)CC1` [Example 167, N-((1s,4s)-4-((1-((6-chloropyridin-3-yl)amino)isoquinolin-6-yl)oxy)cyclohexyl)-4-methylthiazole-5-carboxamide], which EC50 is on record?
A: 1000 to 10000 nM

Q: `CN(c1cnc(Cl)nc1)c1nccc2cc(OCC3(F)CC3)ccc12` [Example 144, N-(2-chloropyrimidin-5-yl)-6-((1-fluorocyclopropyl)methoxy)-N-methylisoquinolin-1-amine] was tested. Which EC50 did it give?
A: ≥ 30000 nM

Q: How did the EC50 turn out when `Cc1nn(C)cc1C(C)Oc1ccc2c(Nc3ccc(Cl)nc3)nccc2c1` (racemic) [Example 173, N-(6-chloropyridin-3-yl)-6-(1-(1,3-dimethyl-1H-pyrazol-4-yl)ethoxy)isoquinolin-1-amine] was run?
A: 1000 to 10000 nM

Q: How did the EC50 turn out when `Cc1nn(C)cc1[C@@H](C)Oc1ccc2c(Nc3ccc(Cl)nc3)nccc2c1` [Example 174, (R)—N-(6-chloropyridin-3-yl)-6-(1-(1,3-dimethyl-1H-pyrazol-4-yl)ethoxy)isoquinolin-1-amine] was run?
A: 1000 to 10000 nM

Q: For `CS(=O)(CC1CC1)=Nc1ccc2c(Nc3ccc(Cl)nc3)nccc2c1` (centres unmarked) [Example 269, ((1-((6-chloropyridin-3-yl)amino)isoquinolin-6-yl)imino)(cyclopropylmethyl)(methyl)-λ^6-sulfanone], which EC50 is on record?
A: 1000 to 10000 nM

Q: With `Clc1ccc(Nc2nccc3cc(OCCN4CC5(CCC5)C4)ccc23)cn1` [Example 71, 6-(2-(2-azaspiro[3.3]heptan-2-yl)ethoxy)-N-(6-chloropyridin-3-yl)isoquinolin-1-amine] as the molecule, how does the EC50 read?
A: 10000 to 30000 nM

Q: How did the EC50 turn out when `FC1(COc2ccc3c(Nc4ccc(Cl)nc4)nccc3c2)CCOC1` (stereo in doubt) [Example 365, (S)—N-(6-chloropyridin-3-yl)-6-((3-fluorotetrahydrofuran-3-yl)methoxy)isoquinolin-1-amine] was run?
A: < 1000 nM

Q: How did the EC50 turn out when `CNc1cc(Nc2nccc3cc(OCC4(C)COC4)ccc23)cnc1Cl` [Example 162, 2-chloro-N^3-methyl-N^5-(6-((3-methyloxetan-3-yl)methoxy)isoquinolin-1-yl)pyridine-3,5-diamine] was run?
A: < 1000 nM

Q: With `CS(=O)(CC1COC1)=Nc1ccc2c(Nc3ccc(Cl)nc3)nccc2c1` (centres unmarked) [Example 272, ((1-((6-chloropyridin-3-yl)amino)isoquinolin-6-yl)imino)(methyl)(oxetan-3-ylmethyl)-λ^6-sulfanone] as the molecule, how does the EC50 read?
A: 1000 to 10000 nM

Q: `CC(C)(C)OC(=O)N[C@H]1CCC[C@@H](Oc2ccc3c(Nc4cnc(Cl)nc4)nccc3c2)C1` [Example 356, tert-butyl ((1S,3R)-3-((1-((2-chloropyrimidin-5-yl)amino)isoquinolin-6-yl)oxy)cyclohexyl)carbamate] was tested. Which EC50 did it give?
A: < 1000 nM

Q: Which EC50 does the source give for `Cc1ncc(Nc2nccc3cc(OCC4(C#N)COC4)ccc23)cn1` [Example 228, 3-(((1-((2-methylpyrimidin-5-yl)amino)isoquinolin-6-yl)oxy)methyl)oxetane-3-carbonitrile] here?
A: 1000 to 10000 nM
